For assay [1], the system named is methicillin-resistant Staphylococcus aureus (MRSA, ATCC #33591). In words: Antibacterial assay, MIC by dilution antimicrobial susceptibility test. It counts as cell-based. The settings on record: ATCC33591|MRSA, 18 h, read-out: MIC against MRSA.
Assay [2] deals with methicillin-sensitive Staphylococcus aureus (MSSA, ATCC #29213). The description is as above. It counts as cell-based. The settings on record: ATCC29213|MSSA, 18 h, read-out: MIC against MSSA.
For assay [3] the following is noted: qualitative statement from the literature; cited from earlier work.

≈ marks a conversion by molar mass, not a printed value.

The text below walks through data of PMC3349995 (Journal of Natural Products, 2012).

Consider `CN[C@H](CC(C)C)C(=O)N[C@H]1C(=O)N[C@@H](CC(N)=O)C(=O)N[C@H]2C(=O)N[C@H]3C(=O)N[C@H](C(=O)N[C@H](C(=O)O)c4cc(O)cc(O)c4-c4cc3ccc4O)[C@H](O)c3ccc(c(Cl)c3)Oc3cc2cc(c3O[C@@H]2O[C@H](CO)[C@@H](O)[C@H](O)[C@H]2O[C@H]2C[C@](C)(N)[C@H](O)[C@H](C)O2)Oc2ccc(cc2Cl)[C@H]1O` [Vancomycin], for which the MIC in assay [1] and in assay [2] was 1 µg/mL (≈ 0.69 µM) throughout. Turning to peptidolipin NA, the “antibacterial activity (reported)” value in assay [3] is “moderate antibacterial activity”.
